Results as given in article PMC8550792, “Evolution of kinase polypharmacology across HSP90 drug discovery” (Cell Chemical Biology, 2021).

Assays:
HSP90B1 = test system: HSP90B1; set-up: method as in ChEMBL23 (accessed: 23/08/2018); conditions: average of reported values; ref ChEMBL23 (accessed: 23/08/2018); cited from earlier work
ABL1 = ABL1 (Homo sapiens, UniProt P00519); test: NanoBRET intracellular target engagement
ABL1, sequence (P00519 whole entry): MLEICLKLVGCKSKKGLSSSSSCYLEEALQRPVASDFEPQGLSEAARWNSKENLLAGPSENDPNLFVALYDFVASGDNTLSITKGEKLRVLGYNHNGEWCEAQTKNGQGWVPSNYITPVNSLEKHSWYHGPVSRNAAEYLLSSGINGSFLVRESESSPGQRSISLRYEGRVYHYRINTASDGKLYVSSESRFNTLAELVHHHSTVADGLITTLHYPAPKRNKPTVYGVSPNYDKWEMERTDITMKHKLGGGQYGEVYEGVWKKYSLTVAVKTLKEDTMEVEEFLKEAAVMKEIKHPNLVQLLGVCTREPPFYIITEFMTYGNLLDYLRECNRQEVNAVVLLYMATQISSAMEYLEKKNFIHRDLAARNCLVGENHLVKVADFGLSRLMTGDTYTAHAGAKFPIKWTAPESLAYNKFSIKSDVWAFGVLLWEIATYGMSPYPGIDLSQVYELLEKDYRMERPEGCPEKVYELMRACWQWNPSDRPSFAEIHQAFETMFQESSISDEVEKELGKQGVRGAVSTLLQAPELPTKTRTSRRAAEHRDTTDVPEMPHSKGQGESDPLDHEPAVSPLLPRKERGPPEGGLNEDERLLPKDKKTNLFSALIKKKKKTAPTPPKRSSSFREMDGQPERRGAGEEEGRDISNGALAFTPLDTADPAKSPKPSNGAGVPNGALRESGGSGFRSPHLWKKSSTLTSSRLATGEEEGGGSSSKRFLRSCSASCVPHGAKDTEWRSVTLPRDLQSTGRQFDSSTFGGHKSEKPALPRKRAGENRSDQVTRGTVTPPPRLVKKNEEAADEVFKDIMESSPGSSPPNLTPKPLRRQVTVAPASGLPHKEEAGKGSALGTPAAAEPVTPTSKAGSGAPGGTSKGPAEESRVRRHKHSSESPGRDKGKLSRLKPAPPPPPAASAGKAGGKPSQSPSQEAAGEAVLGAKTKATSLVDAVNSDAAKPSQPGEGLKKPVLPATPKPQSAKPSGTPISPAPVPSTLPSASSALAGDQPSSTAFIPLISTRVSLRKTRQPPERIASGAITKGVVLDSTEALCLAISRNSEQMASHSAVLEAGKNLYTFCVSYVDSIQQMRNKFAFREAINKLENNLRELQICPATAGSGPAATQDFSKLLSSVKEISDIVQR

In the case of CC(C)c1cc(-c2n[nH]c(=O)n2-c2ccc3c(ccn3C)c2)c(O)cc1O [Ganetespib], the “pActivity, HSP90B1” value (HSP90B1) is listed as 8, the EC50 (ABL1) is listed as 82.9 µM and the remaining activity at 100 µM (ABL1; HEK293, read-out: %Normalized Bret Response, ABL1 NanoBRET, HEK293, Drug Conc. 0.0001 M) is listed as 41.3%.
